Laboratory results published in paper PMC8022858, “Discovery of bone morphogenetic protein 7-derived peptide sequences that attenuate the human osteoarthritic chondrocyte phenotype” (Molecular Therapy. Methods & Clinical Development, 2021).

Legend:
[1] = test system: human OA synovium explants; experiment: PGE2 levels in culture supernatant of synovium explants; type: cell-based; settings: n = 5 donors, 24 h, relative to control (Figure 6C)
Protocol: (§1) Figure 6 Peptide p[63−82] activity on OA knee joint tissues Human OA knee joint tissues were cultured for 24 h in the presence of BMP7, peptide p[63−82], or the scrambled version of peptide p[63−82] and compared to control conditions. (A) Cartilage tissues (n = 7 individual donors) were exposed to shown conditions and analyzed for COL2A1, COL10A1, and COX-2 mRNA expression by quantitative real-time PCR (normalized for 28S rRNA expression and relative to control conditions). (B) GAG release in medium from cartilage tissues (n = 5 individual donors) was determined, and data were calculated relative to the control condition. (C) PGE2 levels in culture supernatant from synovium (n = 5 donors). (D) PGE2 levels in culture supernatant from cartilage tissues from (B) (n = 5 donors). (E) PGE2 levels in culture supernatant from IPFP (n = 5 donors). (F) PGE2 levels in culture supernatant from the meniscus. Synovium, IPFP, and meniscus tissues were from the same 5 donors as the cartilage tissues in (B) and (C). PGE2 levels in conditions were calculated relative to controls for each donor. In graphs, error bars represent mean ± SEM; data are presented relative to the control condition for each time point. Statistical differences (unpaired two-tailed Student’s t test) were calculated to control condition: ∗p < 0.05, ∗∗p < 0.01, and ∗∗∗p < 0.001. […]

[2] = test system: human OA cartilage explants; experiment: PGE2 levels in culture supernatant of cartilage explants; type: cell-based; settings: n = 5 donors, 24 h, relative to control (Figure 6D)
Protocol: as §1

Row | Substance | PGE2 levels in culture supernatants of synovial explants [1] | PGE2 levels from cartilage explants [2]
1 | BMP7: full-length recombinant bone morphogenetic protein 7 (R&D Systems), used at 1 nM | not significantly changed | reduced
2 | H-AAYYSEGESAFPLNSYMNAT-OH [p[63−82]] | not significantly changed | reduced
